One molecule from patent EP0673239B1, “AQUEOUS ANTIBIOTIC COMPOSITION FOR VETERINARY USE” (priority 1992, dated 1994) can be followed below.

Structures are written as SMILES.

This data set in a line: Study 1: cloxacillin in milk after intramammary infusion of Injector 1A. In kind it is in vivo, cows. Conditions: single dose, micronised form in an aqueous base. The procedure: A number of studies have been conducted in cows to establish the following : - Study 1: Bioavailability of cloxacillin in bovine colostrum following intramammary infusion of Injector 1A. Study 2: Irritancy of aqueous cloxacillin in the bovine mammary gland.
As a secondary objective plasma levels of Cloxacillin were also measured, in order to assess the extent of systemic absorption.
Eight animals were infused with Injector 1A in all four quarters, and samples of milk were taken at the following intervals post infusion : 0.5, 1, 2, 3, 4, 6, 8, 12, 24, 32, 48, 72, 96, 120 and 144 hours.
Quarter results were recorded for all animals (it was not possible to get samples from two of the quarters due to problems associated with hand milking of animals normally used to being machine milked). […] A peak mean value of 5233.4 mg/L was found at the first sampling interval (0.5 hr) with an approximately exponential decline being noted over the next 72 hours.

Turning to `Cc1onc(-c2ccccc2Cl)c1C(=O)N[C@@H]1C(=O)N2[C@@H]1SC(C)(C)[C@@H]2C(=O)O` [cloxacillin benzathine], the “duration of therapeutic levels” value was “up to 72 hours”. Besides, under “bovine, milk, read-out: time to high initial peak of antibiotic”, the Tmax is no more than 30 min.
